Patent US20080214577A1, “New Compounds 320” (AstraZeneca AB, priority 2006, published 2008)

The compounds below were run against T1, human β-Secretase (Homo sapiens, UniProt P56817) (assay: TR-FRET assay). Conditions: soluble human β-Secretase (sBACE-Fc), substrate (Europium)[…](Qsy7) 100 nM, pH 4.5.
T1 construct: The soluble part of the human β-Secretase (AA 1-AA 460) was cloned; made in house
Format: biochemical
Procedure: The enzyme used in the IGEN Cleavage-, Fluorescent-, TR-FRET- and BiaCore assays is described as follows: The soluble part of the human β-Secretase (AA 1-AA 460) was cloned into the […]-Fc10-1-IRES-GFP-neoK mammalian expression vector. The gene was fused to the Fc domain of IgG1 (affinity tag) and stably cloned into HEK 293 cells. Purified sBACE-Fc is stored in Tris buffer, pH 9.2 and has a purity of 95%. TR-FRET Assay Enzyme was diluted to 6 μg/mL and the substrate ([…]7) to 200 nM in reaction buffer (NaAcetate, chaps, triton x-100, EDTA pH 4.5). Compounds were diluted to the desired concentration in dimethyl sulfoxide (final dimethyl sulfoxide concentration in assay is 5%). […] Enzyme (9 μL) and 1 μL of compound in dimethyl sulfoxide was added to the plate, mixed and pre-incubated for 10 min. Substrate (10 μL) was added and the reaction proceeded in the dark for 15 min at RT. The reaction was stopped with the addition of 7 μL NaAcetate, pH 9.

T1 sequence (P56817 22-460): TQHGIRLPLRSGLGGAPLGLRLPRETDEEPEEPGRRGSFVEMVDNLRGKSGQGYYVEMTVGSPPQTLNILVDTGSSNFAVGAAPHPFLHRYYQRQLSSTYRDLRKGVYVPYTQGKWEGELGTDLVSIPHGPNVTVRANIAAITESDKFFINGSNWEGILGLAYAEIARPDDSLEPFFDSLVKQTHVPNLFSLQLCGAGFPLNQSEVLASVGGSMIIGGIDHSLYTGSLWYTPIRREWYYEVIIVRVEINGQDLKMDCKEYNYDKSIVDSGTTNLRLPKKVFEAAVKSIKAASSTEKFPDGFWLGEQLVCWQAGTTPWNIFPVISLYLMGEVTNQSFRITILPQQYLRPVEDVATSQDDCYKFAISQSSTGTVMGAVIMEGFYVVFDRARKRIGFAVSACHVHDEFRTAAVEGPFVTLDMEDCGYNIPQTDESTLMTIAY

| SMILES | IC50 [nM] |
| --- | --- |
| COc1ccc(C2(c3cccc(-c4cncnc4)c3)N=C(N)N3CC(O)CN=C32)cc1 (mixture of isomers) [Example 30, 6-Amino-8-(4-methoxyphenyl)-8-(3-pyrimidin-5-ylphenyl)-2,3,4,8-tetrahydroimidazo[1,5-a]pyrimidin-3-ol] | 119 |
| COc1ccc(C2(c3cccc(-c4cncnc4)c3)N=C(N)N3CC(OC)CN=C32)cc1 (mixture of isomers) [Example 32, 3-Methoxy-8-(4-methoxyphenyl)-8-(3-pyrimidin-5-ylphenyl)-2,3,4,8-tetrahydroimidazo[1,5-a]pyrimidin-6-amine] | 571 |
| COc1ccc(C2(c3cccc(-c4cncnc4)c3)N=C(N)N3CC(F)CN=C32)cc1 (mixture of isomers) [Example 50, 3-Fluoro-8-(4-methoxyphenyl)-8-(3-pyrimidin-5-ylphenyl)-2,3,4,8-tetrahydroimidazo[1,5-a]pyrimidin-6-amine 4.0 acetate] | 59 |
| COc1ccc(C2(c3cccc(-c4cccnc4)c3)N=C(N)N3CC(F)(F)CN=C32)cc1 (centres unmarked) [Example 40, 3,3-Difluoro-8-(4-methoxyphenyl)-8-(3-pyridin-3-ylphenyl)-2,3,4,8-tetrahydroimidazo[1,5-a]pyrimidin-6-amine 0.75 acetate] | 76 |
| COc1ccc(C2(c3cccc(-c4cccnc4F)c3)N=C(N)N3CC(F)(F)CN=C32)cc1 (centres unmarked) [Example 42, 3,3-Difluoro-8-[3-(2-fluoropyridin-3-yl)phenyl]-8-(4-methoxyphenyl)-2,3,48-tetrahydroimidazo[1,5-a]pyrimidin-6-amine 0.75 acetate] | 29 |
| COc1cncc(-c2cccc(C3(c4ccncc4)N=C(N)N4CC(F)(F)CN=C43)c2)c1 (centres unmarked) [Example 43, 3,3-Difluoro-8-[3-(5-methoxypyridin-3-yl)phenyl]-8-pyridin-4-yl-2,3,4,8-tetrahydroimidazo[1,5-a]pyrimidin-6-amine acetate] | 41 |
| COc1ccc(C2(c3ccc(F)c(-c4cccnc4F)c3)N=C(N)N3CC(F)(F)CN=C32)cc1C (centres unmarked) [Example 87, 3,3-Difluoro-8-(4-fluoro-3-(2-fluoropyridin-3-yl)phenyl)-8-(4-methoxy-3-methylphenyl)-2,3,4,8-tetrahydroimidazo[1,5-a]pyrimidin-6-amine acetate] | 41 |

More lines, now with the values ahead:

| IC50 [nM] | SMILES |
| --- | --- |
| 253 | COc1ccc(C2(c3cccc(-c4cncnc4)c3)N=C(N)N3CC(S(C)(=O)=O)CN=C32)cc1 (mixture of isomers) [Example 28, 8-(4-Methoxyphenyl)-3-(methylsulfonyl)-8-(3-pyrimidin-5-ylphenyl)-2,3,4,8-tetrahydroimidazol[1,5-a]pyrimidin-6-amine 2.0 acetate] |
| 30 | COc1ccc(C2(c3cccc(-c4cncc(OC)c4)c3)N=C(N)N3CC(F)(F)CN=C32)cc1 (centres unmarked) [Example 41, 3,3-Difluoro-8-(4-methoxyphenal)-8-[3-(5-methoxypyridin-3-yl)phenyl]-2,3,4,8-tetrahydroimidazo[1,5-a]pyrimidin-6-amine 0.75 acetate] |
| 120 | NC1=NC(c2ccncc2)(c2cccc(-c3cccnc3F)c2)C2=NCC(F)(F)CN12 (centres unmarked) [Example 44, 3,3-Difluoro-8-[3-(2-fluoropyridin-3-yl)phenyl]-8-pyridin-4-yl-2,3,4,8-tetrahydroimidazo[1,5-a]pyrimidin-6-amine 0.75 acetate] |
| 59 | NC1=NC(c2ccncc2)(c2cccc(-c3cncc(F)c3)c2)C2=NCC(F)(F)CN12 (centres unmarked) [Example 47, 3,3-Difluoro-8-[3-(5-fluoropyridin-3-yl)phenyl]-8-pyridin-4-yl-2,3,4,8-tetrahydroimidazo[1,5-a]pyrimidin-6-amine acetate] |
| 2300 | CN(C)C(=O)c1cccc(C2(c3cccc(-c4cccnc4F)c3)N=C(N)N3CC(F)(F)CN=C32)c1 (centres unmarked) [Example 69, 3-{6-Amino-3,3-difluoro-8-[3-(2-fluoropyridin-3-yl)phenyl]-2,3,4,8-tetrahydroimidazo[1,5-a]pyrimidin-8-yl}-N,N-dimethylbenzamide] |
| 2100 | CN(C)C(=O)c1ccc(C2(c3cccc(-c4cccnc4F)c3)N=C(N)N3CC(F)(F)CN=C32)cc1 (centres unmarked) [Example 70, 4-{6-Amino-3,3-difluoro-8-[3-(2-fluoropyridin-3-yl)phenyl]-2,3,4,8-tetrahydroimidazo[1,5-a]pyrimidin-8-yl}-N,N-dimethylbenzamide] |
| 92 | COc1ccc(C2(c3ccc(F)c(-c4cncnc4)c3)N=C(N)N3CC(F)(F)CN=C32)cc1C (centres unmarked) [Example 88, 3,3-Difluoro-8-(4-fluoro-3-(pyrimidin-5-yl)phenyl)-8-(4-methoxy-3-methylphenyl)-2,3,48-tetrahydroimidazo[1,5-a]pyrimidin-6-amine acetate] |
